As usually defined, the ΔTm is the shift of the melting midpoint relative to a reference.

For one compound, ΔTm, Ka and binding results are on record in publication PMC10325911 (2023).

Test [1] has as its system c-MYC Pu22 (DNA, G4) TGAGGGTGGGTAGGGTGGGTAA
Put plainly: CD melting. Particulars: K+ 5 mM; Tris 10 mM pH 7.2, DBI 10 μM, oligonucleotide 2 μM, DMSO 2%.

The test system of test [2] is sc ds-DNA (DNA, duplex) CAATCGGATCGAATTCGATCCGATTG
Put plainly: CD melting. Particulars: K+ 5 mM; Tris 10 mM pH 7.2, DBI 10 μM, oligonucleotide 2 μM, DMSO 2%.

Test [3] deals with 4G3U3 (RNA, G4) GGGUUUGGGUUUGGGUUUGGG
The experiment in a line: CD melting. Particulars: K+ 5 mM; Tris 10 mM pH 7.2, DBI 10 μM, oligonucleotide 2 μM, DMSO 2%.

Test [4] relates to c-MYC Pu24T (DNA, G4) TGAGGGTGGTGAGGGTGGGGAAGG
The experiment in a line: CD melting. Particulars: K+ 5 mM; Tris 10 mM pH 7.2, DBI 10 μM, oligonucleotide 2 μM, DMSO 2%.

Test [5] relates to Tel-22 (DNA, G4) AGGGTTAGGGTTAGGGTTAGGG
Put plainly: CD melting. The settings on record: K+ 5 mM; Tris 10 mM pH 7.2, DBI 10 μM, oligonucleotide 2 μM, DMSO 2%.

Test [6] concerns Bom17 (DNA, G4) GGTTAGGTTAGGTTAGG
The experiment in a line: CD melting. The settings on record: K+ 5 mM; Tris 10 mM pH 7.2, DBI 10 μM, oligonucleotide 2 μM, DMSO 2%.

For test [7], the system named is ds-DNA HIF-1α (DNA, duplex) GCGCGGGGAGGGGAGAGGGGGCGGGAGCGCG/CGCGCTCCCGCCCCCTCTCCCCTCCCCGCGC
The experiment in a line: CD melting. Particulars: K+ 5 mM; Tris 10 mM pH 7.2, DBI 10 μM, oligonucleotide 2 μM, DMSO 2%.

Test [8] relates to HIF-1α (DNA, G4) GCGCGGGGAGGGGAGAGGGGGCGGGAGCGCG
The experiment in a line: fluorescence polarization titration. Particulars: K+ 100 mM; Tris 50 mM pH 7.2, DBI 1 μM, DMSO 1%, DNA 0-10 μM. A general note: Polarisation of emitted light reports the rotation of a fluorescent probe.

Test [9] relates to c-MYC Pu22 (DNA, G4) TGAGGGTGGGTAGGGTGGGTAA
Put plainly: fluorescence polarization titration. The settings on record: K+ 100 mM; Tris 50 mM pH 7.2, DBI 1 μM, DMSO 1%, DNA 0-10 μM.

The subject of test [10] is mut HIF-1α (DNA, single strand) GCGCGGCGAGCGGAGAGGGCGCGCGAGCGCG
Put plainly: fluorescence polarization titration. The settings on record: K+ 100 mM; Tris 50 mM pH 7.2, DBI 1 μM, DMSO 1%, DNA up to 10 μM.

Test [11] deals with C-rich HIF-1α (DNA, single strand) CGCGCTCCCGCCCCCTCTCCCCTCCCCGCGC
The experiment in a line: fluorescence polarization titration. The settings on record: K+ 100 mM; Tris 50 mM pH 7.2, DBI 1 μM, DMSO 1%, DNA up to 10 μM.

The subject of test [12] is sc ds-DNA (DNA, duplex) CAATCGGATCGAATTCGATCCGATTG
Put plainly: fluorescence polarization titration. The settings on record: K+ 100 mM; Tris 50 mM pH 7.2, DBI 1 μM, DMSO 1%, DNA up to 10 μM.

Test [13] deals with 4G3U3 (RNA, G4) GGGUUUGGGUUUGGGUUUGGG
The experiment in a line: fluorescence polarization titration. The settings on record: no or very weak binding response, group statement for all four RNAs.

Test [14] deals with TERRA (RNA, G4) UUAGGGUUAGGGUUAGGGUUAGGG
Put plainly: fluorescence polarization titration. The settings on record: no or very weak binding response, group statement for all four RNAs.

Test [15] concerns FMR1 (RNA, G4) GGAGGGGGAGGAAGAGGACAAGGAGGAAGAGG
The experiment in a line: fluorescence polarization titration. Particulars: no or very weak binding response, group statement for all four RNAs.

Test [16] deals with sc ds-RNA (RNA, duplex) CAAUCGGAUCGAAUUCGAUCCGAUUG
Put plainly: fluorescence polarization titration. Particulars: no or very weak binding response, group statement for all four RNAs.

With `CCC(CC)n1c(=O)c2ccc3sc4ccc5ccccc5c4c4ccc(c1=O)c2c34`, the ΔTm in test [1] is 7.3 °C; in test [2], -1.5 °C; in test [3] it was 0.6 °C; in test [4] it was 3.3 °C; in test [5], -1.3 °C; in [6] it was -0.1 °C. In test [7], the ΔTm was 2 °C. Also, the Ka is listed as 4.6 × 10^5 ± 0.5 M^−1 in [8] and 4.5 × 10^5 ± 1.1 M^−1 in test [9]. Moreover, the binding result is given as “no” in test [10]; “no” in test [11]; “no” in [12]; “weak” in test [13]; “weak” in [14]; “weak” in [15]. The binding result in test [16] is on record as “weak”.
